Several values for one entry are separate records, joined by “and”; a condition that tells them apart may be missing. Equal entries are not always repeated. Entries after “also recorded” stand apart in the source; their conditions may differ.
Legend:
mutant HTT protein = test: Repeat oral dosing in BacHD mice: mutant HTT protein in tissues (Western blot); type: in vivo
Method: For the repeat dosing study, twenty-four BacHD mice (FVB/N-Tg(HTT*97Q)IXwy/J transgenic mice—Jackson Laboratories) were used for the experiment. Animal protocols were approved by the Children's Hospital of Philadelphia Institutional Animal Care and use Committee. Mice were housed in a temperature-controlled environment on a 12-h light/dark cycle. Food and water were provided ad libitum.
For the repeat dosing study, branaplam or vehicle was administered by oral gavage 3 times a week for 3 consecutive weeks. Mice were divided in 4 groups (n=6 mice/group) and treated with branaplam (12 mg/kg—1 group, or 24 mg/kg—2 groups), or vehicle (1 groups) as control. Mice were firmly restrained by grasping the loose skin to immobilize the head, maintained in a vertical position and a 22- to 26-gauge gavage needle was placed in the side of the mouth. The needle was guided following the roof of the mouth into the esophagus and allowed to gently enter in the stomach. The amount of branaplam or vehicle administrated to each mouse was based on the weight recorded the day of dosing.
At 24 h (vehicle and branaplam 12 mg/Kg & 24 mg/Kg), and 72 h (branaplam 24 mg/Kg) after the last treatment, blood, CSF, and tissue samples were obtained for PK and PD analysis. To collect CSF, mice were placed in a rodent anesthesia induction chamber where they are exposed to 4-5% isoflurane in 100% oxygen carrier gas. Once an appropriate plane of anesthesia was achieved, they were moved to a nose cone so that maintenance levels of isoflurane (1-3%) could be delivered throughout the procedure. The dorsal aspect of their cervical and occipital region was surgically prepped to visualize the dura mater under a microscope. A glass micropipette attached to a micromanipulator was introduced to the cisterna magna via a puncture through the dura mater at a point where no vasculature was visualized, and CSF was allowed to flow into the micropipette via capillary action. After approximately 15-30 minutes, the micropipette was removed from the cisterna magna, the CSF sample was transferred into Eppendorf tubes, flash frozen in liquid nitrogen, and stored at −80° C.
Following CSF collection, mice were kept under anesthesia with isoflurane. Blood was obtained via submandibular vein bleeds and collected for RNA extraction (PD analysis) using RNAprotect Animal Blood Tubes, and plasma (PK analysis) using K2EDTA coated tubes. […]
Snap-frozen mouse tissue samples were homogenized in RIPA buffer with protease and phosphatase inhibitor (Thermo Scientific) by Precellys at 6000 rpm for 40 sec. […] Total protein concentration was quantified using the BCA protein Assay (Thermo Scientific). […] Protein bands were quantified by Image J.

[1] = GastroPlus ACAT/PBPK physico-chemical and formulation input parameters; conditions: for controlled-release dissolution profile, release: fitted to plasma profile
From the text: The pharmacokinetic (PK) model in adult subjects was developed using an Advanced Compartmental And Transit (ACAT)/Physiologically Based Pharmacokinetic (PBPK) model in GastroPlus™ software, Version 9.6 (SimulationPlus, Lancaster, CA, USA).
• Principle set-up of a pediatric ACAT/PBPK model in GastroPlus™ software including physico-chemical parameters, physiological parameters, and formulation factors. The ACAT model was linked to a full PBPK model in which tissue-to-plasma concentration ratios were estimated via in silico method provided by GastroPlus™ software. • Estimation of the clearance (CL) using plasma concentrations of branaplam from an open-label multi-part first-in-human proof of concept study of oral branaplam, Part 1 only. The aim of Part 1 of this study was to determine the safety and tolerability of ascending weekly doses and to estimate the maximum tolerated dose (MTD) of oral/enteral branaplam (formulation described in Example 3) in infants with Type 1 SMA. All patients had exactly 2 copies of the SMN2 gene. Patients were dosed once weekly with branaplam. The branaplam doses were escalated in subsequent cohorts until MTD was determined or when PK results confirmed that the MTD could not be reached due to a potential pharmacokinetic exposure plateau at higher doses. The starting dose referring to the free base was 6 mg/m^2 (equal to 0.3125 mg/kg). Subsequent doses were 12 mg/m^2, 24 mg/m^2, 48 mg/m^2 and 60 mg/m^2 (0.625 mg/kg, 1.25 mg/kg, 2.5 mg/kg and 3.125 mg/kg, respectively). 14 patients were enrolled in Part 1; 13 patients were exposed to branaplam. The duration of exposure ranged from 4-33 months, 7 patients remain in the study. Six of the 7 patients are receiving 60 mg/m^2, 1 patient is receiving 48 mg/m^2.
The in vivo solubility parameter for branaplam was newly assessed to consider the impact of the solubilizer cyclodextrin (CD), which is present in the currently used formulation (Example 3), on the solubility of branaplam. […]

[2] = 12 or 24 mg/kg oral, thrice weekly for three weeks, 24 h post-dosing, listed as branaplam

CC1(C)CC(Oc2ccc(-c3ccc(-c4cn[nH]c4)cc3O)nn2)CC(C)(C)N1 [Compound 18, 5-(1H-pyrazol-4-yl)-2-(6-((2,2,6,6-tetramethylpiperidin-4-yl)oxy)pyridazin-3-yl)phenol]
mutant HTT protein, 72 h relative to 24 h (mutant HTT protein; 24 mg/kg cohort, takedown 72 h post-dose): trend towards further lowering
mutant HTT protein in the cortex (mutant HTT protein; [2]): dose dependent, significant lowering; also recorded: lowers
mutant HTT protein in the striatum (mutant HTT protein; [2]): dose dependent, significant lowering; also recorded: lowers
mHTT protein in the liver (mutant HTT protein; 12 or 24 mg/kg oral, thrice weekly for three weeks, listed as branaplam): robust lowering; also recorded: lowers
controlled-release dissolution profile, release ([1]; at 0.25 h): 2%
controlled-release dissolution profile, release ([1]; at 1 h): 5%
Solubility ([1]; pH 6.8, optimized with GastroPlus on observed concentration-time data (cyclodextrin formulation), listed as branaplam): 0.088 at pH 6.8 (Optimized value using GastroPlus ™ software mg/mL and 0.088 at pH 6.8 (Optimized value using GastroPlus ™ based mg/mL
